Results published in PubChem BioAssay (NCI).
Values joined by “and” are separate entries in the source; they are usually repeats but may differ in a detail not shown here. Equal values may be shown once.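 The compound was tested at five concentrations on cells cultured in 96-well plates, with a 48-hour exposure period. The concentration for 50% growth inhibition is given as GI50. TGI is the concentration that stops growth completely.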

How the values were obtained:
Test in all cases: inhibition of tumour cell growth, NCI panel, 48 h
K-562 leukemia = test system: K-562 leukemia
SW-620 colon = test system: SW-620 colon
SF-295 CNS = test system: SF-295 CNS
LOX IMVI melanoma = test system: LOX IMVI melanoma
UACC-62 melanoma = test system: UACC-62 melanoma
HCT-116 colon = test system: HCT-116 colon
M14 melanoma = test system: M14 melanoma
CAKI-1 renal = test system: CAKI-1 renal
SR leukemia = test system: SR leukemia
ACHN renal = test system: ACHN renal

COc1c(N2CCN(CN3C(=O)C(=Nc4ccc(S(=O)(=O)Nc5ncccn5)cc4)c4ccccc43)C(C)C2)c(F)cc2c(=O)c(C(=O)O)cn(C3CC3)c12 (stereo not given)
GI50 (K-562 leukemia): 11.9 µM | TGI (K-562 leukemia): > 50 µM | GI50 (SW-620 colon): 10.8 µM | TGI (SW-620 colon): 39.4 µM | GI50 (SF-295 CNS): > 50 µM | TGI (SF-295 CNS): > 50 µM | GI50 (LOX IMVI melanoma): 27.5 µM | TGI (LOX IMVI melanoma): > 50 µM | GI50 (UACC-62 melanoma): 36.9 µM | TGI (UACC-62 melanoma): > 50 µM | GI50 (HCT-116 colon): 18.2 µM | TGI (HCT-116 colon): > 50 µM | GI50 (M14 melanoma): > 50 µM | TGI (M14 melanoma): > 50 µM | GI50 (CAKI-1 renal): 48 µM | TGI (CAKI-1 renal): > 50 µM | GI50 (SR leukemia): 12.5 µM | TGI (SR leukemia): > 50 µM | GI50 (ACHN renal): > 50 µM | TGI (ACHN renal): > 50 µM

O=C(CCl)N1c2ccccc2Sc2c1ccc1ccccc21
GI50 (K-562 leukemia): 2.98 µM | TGI (K-562 leukemia): 13 µM | GI50 (SW-620 colon): 1.66 µM | TGI (SW-620 colon): 3.68 µM | GI50 (SF-295 CNS): 2.38 µM | TGI (SF-295 CNS): 6.53 µM | GI50 (LOX IMVI melanoma): 1.12 µM | TGI (LOX IMVI melanoma): 2.42 µM | GI50 (UACC-62 melanoma): 2.07 µM | TGI (UACC-62 melanoma): 4.9 µM | GI50 (HCT-116 colon): 1.45 µM | TGI (HCT-116 colon): 2.78 µM | GI50 (M14 melanoma): 1.68 µM | TGI (M14 melanoma): 3.53 µM | GI50 (CAKI-1 renal): 2.05 µM | TGI (CAKI-1 renal): 5.04 µM | GI50 (SR leukemia): 2.4 µM | TGI (SR leukemia): 9.55 µM | GI50 (ACHN renal): 1.83 µM | TGI (ACHN renal): 3.69 µM

CCCCCCCCCCCCCCCCCCCCCC(=O)Nc1ccn(C2OC(CO)C(O)C2O)c(=O)n1 (stereo not given)
TGI (K-562 leukemia): > 100 µM | TGI (SW-620 colon): > 100 µM | TGI (SF-295 CNS): > 100 µM | TGI (LOX IMVI melanoma): > 100 µM | TGI (UACC-62 melanoma): > 100 µM | TGI (HCT-116 colon): > 100 µM | TGI (M14 melanoma): 32.6 µM | TGI (CAKI-1 renal): > 100 µM | TGI (SR leukemia): 26.8 µM | TGI (ACHN renal): > 82.6 µM

CC1OC2CC(=O)OC2C2=C1C(=O)c1c(O)c3c(c(O)c1C2=O)C1CC(O)C3(O)C(C)O1 (stereo not given)
GI50 (K-562 leukemia): 0.336 µM | TGI (K-562 leukemia): 11.5 µM | GI50 (SW-620 colon): 0.168 µM | TGI (SW-620 colon): 0.774 µM | GI50 (SF-295 CNS): 0.975 µM | TGI (SF-295 CNS): 3.29 µM | GI50 (LOX IMVI melanoma): 0.104 µM | TGI (LOX IMVI melanoma): 0.476 µM | GI50 (UACC-62 melanoma): 0.734 µM | TGI (UACC-62 melanoma): 2.13 µM | GI50 (HCT-116 colon): 0.0452 µM | TGI (HCT-116 colon): 0.252 µM | GI50 (M14 melanoma): 0.242 µM | TGI (M14 melanoma): 0.662 µM | GI50 (CAKI-1 renal): 0.224 µM | TGI (CAKI-1 renal): 0.613 µM | GI50 (SR leukemia): 0.344 µM | TGI (SR leukemia): 5.86 µM | GI50 (ACHN renal): 0.555 µM | TGI (ACHN renal): 10.4 µM

COC(=O)C1C2C=CC(C2)N1[C@@H](C)c1ccccc1 (stereo not given in full)
TGI (K-562 leukemia): > 100 µM | TGI (SW-620 colon): > 100 µM | TGI (SF-295 CNS): > 100 µM | TGI (LOX IMVI melanoma): > 100 µM | TGI (UACC-62 melanoma): > 100 µM | TGI (HCT-116 colon): > 100 µM | TGI (M14 melanoma): > 100 µM | TGI (CAKI-1 renal): > 100 µM | TGI (SR leukemia): > 100 µM | TGI (ACHN renal): > 100 µM

COc1ccc(C2S/C(=C\c3ccc(O)cc3)C(=O)N2NC(=O)Cc2ccccc2)cc1 (stereo not given)
TGI (K-562 leukemia): > 100 µM | TGI (SW-620 colon): > 100 µM | TGI (SF-295 CNS): > 100 µM | TGI (LOX IMVI melanoma): > 100 µM | TGI (UACC-62 melanoma): > 100 µM | TGI (HCT-116 colon): > 100 µM | TGI (M14 melanoma): > 100 µM | TGI (CAKI-1 renal): > 100 µM | TGI (SR leukemia): > 100 µM | TGI (ACHN renal): > 100 µM

CCCCCCCCCCCCCCCC(=O)OCC1OC(n2c(O)c(N=NC(N)=S)c3ccc([N+](=O)[O-])cc32)C(OC(C)=O)C1OC(C)=O (stereo not given)
TGI (K-562 leukemia): > 100 µM | TGI (SW-620 colon): > 100 µM | TGI (SF-295 CNS): > 100 µM | TGI (LOX IMVI melanoma): > 100 µM | TGI (UACC-62 melanoma): > 100 µM | TGI (HCT-116 colon): > 100 µM | TGI (M14 melanoma): > 100 µM | TGI (CAKI-1 renal): > 100 µM | TGI (SR leukemia): > 100 µM | TGI (ACHN renal): > 100 µM

CC(C)CC1=[N+]=C(NC#N)N=C(CCC(=O)Nc2ccccc2[N+](=O)[O-])C1
TGI (K-562 leukemia): > 100 µM | TGI (SW-620 colon): > 100 µM | TGI (SF-295 CNS): > 100 µM | TGI (LOX IMVI melanoma): > 100 µM | TGI (UACC-62 melanoma): > 100 µM | TGI (HCT-116 colon): > 100 µM | TGI (M14 melanoma): > 100 µM | TGI (CAKI-1 renal): > 100 µM | TGI (SR leukemia): > 100 µM | TGI (ACHN renal): > 100 µM

Cc1cc(C(C#N)c2ccc(Cl)cc2)c(Cl)cc1NC(=O)c1cc(I)cc(I)c1O (stereo not given)
GI50 (K-562 leukemia): 15.5 µM | TGI (K-562 leukemia): 47.5 µM | GI50 (SW-620 colon): 6.91 µM and 16.7 µM | TGI (SW-620 colon): 22.6 µM and 34.6 µM | GI50 (SF-295 CNS): 3.22 µM and 10.9 µM | TGI (SF-295 CNS): 14.7 µM and 30.1 µM | GI50 (LOX IMVI melanoma): 10.4 µM and 16.7 µM | TGI (LOX IMVI melanoma): 26.1 µM and 35.5 µM | GI50 (UACC-62 melanoma): 2.96 µM and 8.79 µM | TGI (UACC-62 melanoma): 11.5 µM and 23.8 µM | GI50 (HCT-116 colon): 17.7 µM and 14.5 µM | TGI (HCT-116 colon): 31.5 µM and 27.6 µM | GI50 (M14 melanoma): 14.7 µM and 16.3 µM | TGI (M14 melanoma): 29.9 µM and 34.2 µM | GI50 (CAKI-1 renal): 10.2 µM and 14.3 µM | TGI (CAKI-1 renal): 35.1 µM and 40.9 µM | GI50 (SR leukemia): 5.97 µM and 9.04 µM | TGI (SR leukemia): 34.5 µM and > 100 µM | GI50 (ACHN renal): 15.5 µM and 17.2 µM | TGI (ACHN renal): 46.1 µM and 37.1 µM

C[C@H]1[C@H](C)CC[C@]2(C(=O)O)CC[C@]3(C)C(=CC[C@@H]4[C@@]5(C)C/C(=C/c6cccnc6)[C@H](O)C(C)(C)[C@@H]5CC[C@]43C)[C@H]12
GI50 (K-562 leukemia): 6.79 µM | TGI (K-562 leukemia): > 100 µM | GI50 (SW-620 colon): 20.9 µM | TGI (SW-620 colon): > 100 µM | GI50 (SF-295 CNS): 4.83 µM | TGI (SF-295 CNS): 25.8 µM | GI50 (LOX IMVI melanoma): 13.4 µM | TGI (LOX IMVI melanoma): 28.1 µM | GI50 (UACC-62 melanoma): 11.7 µM | TGI (UACC-62 melanoma): 35 µM | GI50 (HCT-116 colon): 10.7 µM | TGI (HCT-116 colon): 26.8 µM | GI50 (M14 melanoma): 17.7 µM | TGI (M14 melanoma): 49 µM | GI50 (CAKI-1 renal): 17.8 µM | TGI (CAKI-1 renal): > 100 µM | GI50 (SR leukemia): 20.7 µM | TGI (SR leukemia): 82.8 µM | GI50 (ACHN renal): 10.2 µM | TGI (ACHN renal): > 100 µM

CC(=O)n1c2ccccc2c2nc3nc(Oc4ccc(C)cc4)c4ccccc4c3cc21
TGI (K-562 leukemia): > 100 µM | TGI (SW-620 colon): > 100 µM | TGI (SF-295 CNS): > 100 µM | TGI (LOX IMVI melanoma): > 100 µM | TGI (UACC-62 melanoma): > 100 µM | TGI (HCT-116 colon): > 100 µM | TGI (M14 melanoma): > 100 µM | TGI (CAKI-1 renal): > 100 µM | TGI (SR leukemia): > 100 µM | TGI (ACHN renal): > 100 µM
